# Literature values in patent US20210135109A1, “ACCELERATED THERMAL CROSSLINKING OF PVDF-HFP VIA ADDITION OF ORGANIC BASES, AND THE USAGE OF CROSSLINKED PVDF-HFP AS GATE DIELECTRIC MATERIAL FOR OTFT DEVICES” (priority 2017, published 2021).
# Conditions: water (measured in water unless otherwise specified)
compound,measurement,value
"NCCCCCCN [HMDA, Hexamethylenediamine]","pKa (25° C., 1 atm)",10.92 ± 0.10
